Data from EP1834669A1, “Use of specific hydrazone compounds for the treatment of viral infections” (Heinrich-Pette-Institut, priority 2006, dated 2007).
Entries after “also recorded” stand apart in the source; their conditions may differ. Like-named read-outs stand apart in the source and are kept apart here.

Assays:
[1] = biological target: T1, S-adenosylmethionine decarboxylase (SAMDC) (Homo sapiens, UniProt P17707); conditions: dihydrochloride, cited from earlier work
T1 sequence (P17707 68-334 limits assumed): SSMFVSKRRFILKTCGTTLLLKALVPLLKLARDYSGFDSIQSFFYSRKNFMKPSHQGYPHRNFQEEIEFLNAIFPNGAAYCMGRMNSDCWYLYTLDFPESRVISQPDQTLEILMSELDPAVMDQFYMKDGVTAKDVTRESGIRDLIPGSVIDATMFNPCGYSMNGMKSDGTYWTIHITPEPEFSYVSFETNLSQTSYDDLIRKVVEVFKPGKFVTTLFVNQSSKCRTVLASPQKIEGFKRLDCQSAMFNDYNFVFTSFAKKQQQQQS
T1 sequence (P17707 1-67 limits assumed): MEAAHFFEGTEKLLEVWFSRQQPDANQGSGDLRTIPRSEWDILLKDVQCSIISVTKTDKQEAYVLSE

HIV-1 Rev pathway = test: HIV-1 gag-pol mRNA export with GPV-RRE / GPV-4xCTE constructs in transfected HeLaCD4-CAT cells; type: cell-based; conditions: 0.4 µM, HeLaCD4-CAT cells cultured 5 days, 48 hours post-transfection
Excerpt: Transcripts expressed from GPV-RRE access the CRM1/exporti nuclear export pathway. Messages expressed from GPV-4xCTE are transported across the nuclear envelope via the NXF1/TAP pathway. CMV-IE, cytomegalovirus immediate early promoter; pA, polyadenylation site; SD, splice donor; SA, splice acceptor; RRE, Rev reponse element; CTE, constitutive transport element. […] Likewise, cultures were transfected with GVP-4xCTE, a negative control plasmid (to maintain input DNA levels) and the constitutive internal control vector pBC12/CMV/SEAP. At 48 hours post-transfection cell supernatants were assayed for secreted alkaline phosphatase (SEAP) and p24 antigen levels. In addition, p55^Gag- and α-tubulin-specific (protein loading control) Western-blot analyses were performed from representative cell cultures at […].
Transfection Experiments and Plasmids. HeLaCD4-CAT cells were transiently transfected using Lipofectamine and Plus reagent according to the manufacturer's protocol (Invitrogen Corp.). […] At 48 hours post-transfection, cellular lysates were prepared and the levels of β-galactosidase (transfection efficiency control) and luciferase were assayed by ELISA (Roche Applied Science) or luminescence (Promega), respectively. […]

[2] = tested on: PBMCs from a healthy donor; test: Apoptosis assay, FACS with FITC-coupled annexin V; type: cell-based; conditions: 0.4 µM, 12 days
Method: Analysis of cellular toxicity. (A) Cell viability assay. […] (B) Cell-cycle analysis. […] FACS-analysis was performed by DNA-staining with propidiumiodide. (C) Apoptosis-assay.
Analysis of Cellular Toxicity.

eIF-5A = test: Hypusine modification of eIF-5A, [14C]putrescine labeling, 2D gel electrophoresis and immunoprecipitation; type: cell-based; conditions: 0.4 µM, PM1 and HeLaCD4-CAT cells
Chain of eIF-5A (P63241 whole entry): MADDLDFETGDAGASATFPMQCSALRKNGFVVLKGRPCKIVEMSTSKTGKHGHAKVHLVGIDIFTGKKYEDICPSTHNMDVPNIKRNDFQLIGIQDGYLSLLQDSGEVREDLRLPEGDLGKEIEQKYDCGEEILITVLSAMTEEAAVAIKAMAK
Method: Protein separation was performed using equal amounts of radiolabeled extracts, by isoelectric focusing in the first dimension on an immobilized linear pH gradient (IPG) from pH 4.0 to 7.0, which was followed by SDS-PAGE separation in the second dimension. Only molecular mass of < 25.0 kDa is shown in the autoradiographies. Molecular mass standards are indicated in kDa on the right. […] Coomassie blue-staining of the gel served as protein loading control (lower panel).
Two-Dimensional Gel Electrophoresis and Immunoprecipitation Analysis. […] Gel analysis was performed by autoradiography as previously described (Hauber, I., Bevec, D., Heukeshoven, J., Krätzer, F., Horn, F., Choidas, A., Harrer, T. & Hauber, J. (2005) J. Clin. Invest 115, 76-85). For immunoprecipitation of eIF-5A, 2 x 10^6 HeLaCD4-CAT cells (obtained through the NIH AIDS Research and Reference Reagent Program from B.K.Felber and G.N.Pavlakis) were metabolically labeled as above. The various cellular extracts were prepared and analyzed using a rabbit polyclonal anti-eIF-5A antibody (Schatz, O., Oft, M., Dascher, C., Schebesta, M., Rosorius, O., Jaksche, H., Dobrovnik, M., Bevec, D. & Hauber, J. (1998) Proc. Natl. Acad. Sci. U. S. A 95, 1607-1612) as previously described in detail (Hauber, I., Bevec, D., Heukeshoven, J., Krätzer, F., Horn, F., Choidas, A., Harrer, T. & Hauber, J. (2005) J. Clin. Invest 115, 76-85).

HIV-1 BaL = HIV-1 BaL infection of PM1 cells, p24 antigen in supernatant; type: cell-based; conditions: HIV-1 BaL-infected PM1 cells, p24Gag antigen, day 6 and 9 post-infection; dihydrochloride
Method: The culture medium was changed at day 3 and 6 post-infection and the cells were split 1:1. p24^Gag antigen levels and cell viabilities were determined at day 6 and 9 post-infection. The percentage of inhibition of virus replication in the drug-treated cell culture, as compared to the untreated controls is shown in the upper panel. Cell viabilities from the same cultures were determined by alamarBlue™ assay (Serotec) and is shown in the lower panel. (B) Gag-specific Western-blot analysis. […] (C) Analysis of de novo infection. […]
(§1) PM1 cells were cultured in RPMI 1640 medium containing 10% fetal calf serum (Pansystems GmbH) and antibiotics (penicillin and streptomycin) and infected with the virus strains exactly as described elsewhere (Hauber, I., Bevec, D., Heukeshoven, J., Krätzer, F., Horn, F., Choidas, A., Harrer, T. & Hauber, J. (2005) J. Clin. Invest 115, 76-85). […] At the same time cell viability (measured by alamarBlue™ assay) and p24 antigen levels in the supernatant (Innotest HIV p24 Antigen mAb; Innogenetics N. V.) were determined. […]

HIV-1 isolate FE9 = test: Infection of PM1 cells with multidrug-resistant HIV-1 isolate FE9, p24 antigen in supernatant; type: cell-based
Method: Culture medium was changed every third day and cells were split 1:1. Cell viabilities and p24 antigen levels were determined at the indicated days. The percentage of inhibition of virus replication in the drug-treated culture as compared with replication in the untreated control culture is shown in the upper panel. The respective virus growth curves as measured by p24 antigen levels in the culture supernatants are shown in the lower panel. n/a; not applicable. (B) Cellular toxicities were determined in the same cultures by alamarBlue™ assay (Serotec) for metabolic activity.
HIV-1 Infection Experiments. […]
as §1

2-[4-(aminoiminomethyl)-2,3-dihydro-1H-inden-1-ylidene]-hydrazinecarboximidamide dihydrochloride
inhibition of SAMDC [1]: potent inhibitor | inhibition of SAMDC ([1]; listed as 2-[4-(aminoiminomethyl)-2,3-dihydro-1H-inden-1-ylidene]-hydrazinecarboximidamide): efficient inhibitor | HIV-1 Rev pathway (HIV-1 Rev pathway): Specific inhibition | effects on cell death [2]: did not induce deleterious effects | hypusine-formation in eIF-5A (eIF-5A): prevents hypusine-formation | HIV-1 BaL replication (HIV-1 BaL): Inhibition of HIV-1 BaL replication; also recorded: pronounced antiviral effects | formation of progeny viruses (HIV-1 isolate FE9; PM1 cells infected with multiple HAART-resistant isolate FE9, 0.4 µM, dihydrochloride): Inhibition of a multiple HAART-resistant HIV-1 isolate; also recorded: inhibited | virus replication (HIV-1 isolate FE9; applied concentration 0.4 µM): perfectly blocked virus replication
